Assay results as given in paper PMC12416277, “Phytochemical alkaloids orchestrate immunometabolism against viral infections” (National Science Review, 2025).

What was measured:
H1N1 [1] = assay: Viral attachment, entry and post-entry assay, H1N1 in A549 cells; format: cell-based, influenza virus A (H1N1)
VSV [2] = format: cell-based, vesicular stomatitis virus (VSV)
H1N1 [3] = assay: Antiviral effect in normal/serum-free medium during H1N1 infection of A549 cells; format: cell-based, influenza virus A (H1N1); settings: serum-free conditions
STAT1 = assay: Confocal analysis of nuclear localization of STAT1 in A549 cells; format: cell-based
VSV [4] = format: cell-based, vesicular stomatitis virus (VSV); remark: listed apart in the source
NPC1/STING axis = assay: Ifit1 and Ifit2 mRNA in sgRNA-EV, sgRNA Npc1 and Flag-NPC1 cells stimulated with DMXAA and Tet; format: cell-based, mouse; settings: sgRNA-EV vs NPC1-deficient vs Flag-NPC1 cells, DMXAA
Description: Figure 5. The dual functions of Tet to resist viral entry and activate antiviral immunity through the NPC1/STING axis. (a, b) Confocal analysis of Bio-Tet with CD63 (a) or NPC1 (b) in A549 cells, scale bar: 10 μm. (c) Binding affinity analysis of NPC1 with itraconazole, U18666A, or Tet was determined by SPR. (d, e) CETSA (d) and DARTS (e) analysis of NPC1 with Tet in HepG2 cells. (f) Streptavidin-covered beads with biotin, Bio-Tet, Bio-Tet + Tet were incubated with cell lysates. As indicated, the levels of NPC1 protein in bound proteins (IP) and total proteins (Input) were determined using immunoblotting. (g) Viral mRNA expression in siNPC1-transfected cells treated with Tet. (h) Viral mRNA expression in sgRNA-EV, sgRNA Npc1, and sgRNA Npc1 cells transfected with Flag-NPC1 treated with Tet. (i) Ifit1 and Ifit2 mRNA expression in sgRNA-EV, sgRNA Npc1, and sgRNA Npc1 cells transfected with Flag-NPC1 stimulated with DMXAA and Tet. (j) Schematic of LysoIP-DEG. (k) Immunoblotting analysis of the indicated proteins in LysoIP-DEG in Tet-treated HepG2 cells. (l) Schematic model of NPC1/STING axis-mediated viral inhibition by Tet. The schematic diagram (j) and model (l) were created by Figdraw. For a, b, g, h, i, n = 3 independent experiments. All data are presented as mean ± SD. P values were calculated using one-way ANOVA (g, h, i). NS, not significant. […]

NPC1 = target: T1, NPC1 (Homo sapiens, UniProt O15118); assay: Bio-Tet streptavidin pull-down from cell lysates; format: binding
T1 sequence (O15118 23-1278): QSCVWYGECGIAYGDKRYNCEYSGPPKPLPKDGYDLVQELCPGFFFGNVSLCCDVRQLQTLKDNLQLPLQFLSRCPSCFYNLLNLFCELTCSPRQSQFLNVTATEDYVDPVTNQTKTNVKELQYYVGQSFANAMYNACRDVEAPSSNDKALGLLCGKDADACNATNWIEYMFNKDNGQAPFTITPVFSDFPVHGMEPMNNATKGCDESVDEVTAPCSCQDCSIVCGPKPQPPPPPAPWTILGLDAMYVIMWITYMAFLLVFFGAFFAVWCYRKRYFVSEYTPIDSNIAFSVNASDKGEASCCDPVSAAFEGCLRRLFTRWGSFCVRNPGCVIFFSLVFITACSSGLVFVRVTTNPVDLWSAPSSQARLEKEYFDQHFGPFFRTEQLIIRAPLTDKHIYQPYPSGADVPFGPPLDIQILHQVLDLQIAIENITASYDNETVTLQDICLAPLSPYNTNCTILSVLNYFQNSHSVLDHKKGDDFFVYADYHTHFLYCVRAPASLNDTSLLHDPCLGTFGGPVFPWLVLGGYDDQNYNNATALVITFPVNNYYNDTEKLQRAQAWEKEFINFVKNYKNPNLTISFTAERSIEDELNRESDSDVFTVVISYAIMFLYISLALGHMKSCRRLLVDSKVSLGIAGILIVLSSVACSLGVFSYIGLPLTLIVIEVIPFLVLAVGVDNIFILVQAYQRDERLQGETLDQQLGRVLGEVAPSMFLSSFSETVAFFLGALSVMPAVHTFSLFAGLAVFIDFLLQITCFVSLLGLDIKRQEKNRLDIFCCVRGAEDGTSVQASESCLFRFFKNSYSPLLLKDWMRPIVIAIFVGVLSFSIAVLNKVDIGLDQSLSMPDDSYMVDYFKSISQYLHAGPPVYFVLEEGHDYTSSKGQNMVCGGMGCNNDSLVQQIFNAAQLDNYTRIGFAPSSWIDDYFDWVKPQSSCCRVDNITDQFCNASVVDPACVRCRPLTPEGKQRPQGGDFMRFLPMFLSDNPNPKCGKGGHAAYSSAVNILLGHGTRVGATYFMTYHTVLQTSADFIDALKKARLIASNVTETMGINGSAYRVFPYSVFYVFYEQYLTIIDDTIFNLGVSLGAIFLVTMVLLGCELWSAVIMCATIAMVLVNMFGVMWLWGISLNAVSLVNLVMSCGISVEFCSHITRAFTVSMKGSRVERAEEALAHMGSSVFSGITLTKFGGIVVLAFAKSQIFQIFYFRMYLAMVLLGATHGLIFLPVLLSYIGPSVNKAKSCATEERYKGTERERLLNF

H1N1 [5] = assay: Time-of-drug-addition assay, H1N1 in A549 cells; format: cell-based, influenza virus A (H1N1); settings: pre-treatment, co-treatment and post-treatment

## COc1ccc2cc1Oc1ccc(cc1)C[C@H]1c3cc(c(OC)cc3CCN1C)Oc1c(OC)c(OC)cc3c1[C@H](C2)N(C)CC3 [Tet, tetrandrine]
H1N1 [1]
  H1N1 infection during entry or post-entry stages: inhibited
H1N1 [1]; 4°C
  H1N1 attachment: without affecting virus attachment
VSV [2]
  VSV replication (VSV-G protein, immunoblotting): inhibited
H1N1 [3]
  antiviral effect on H1N1 entry: diminished
STAT1
  STAT1 nucleus translocation: promoted STAT1 nucleus translocation
VSV [4]
  antiviral effect and boosted ISGs: significantly attenuated
NPC1/STING axis
  Ifit1 and Ifit2 expression: observed in sgRNA-EV cells, but this effect was abolished in NPC1-deficient cells and restored in sgRNA-Npc1 cells transfected with Flag-NPC1
NPC1
  competition of Bio-Tet/NPC1 interaction: competitively inhibited
H1N1 [5]
  H1N1 infection: effectively suppressed
